Results: patent US9409866B2, “Pyridine-2-amides useful as CB2 agonists” (Hoffmann-La Roche Inc., priority 2012, dated 2016)
pEC50: −log10 of the molar value. Read-outs that look alike come from different tables or passages of the source.

Experiments:
human CB2 receptors = human CB2 receptors (Homo sapiens (Human), UniProt P34972); assay: functional cAMP assay, CHO cells expressing human CB2; assay type: cell-based; conditions: for pEC50: read-out: Human CB2 EC50; for EC50: Human CB2 EC50 (uM)
Experimental: (§1) CHO cells expressing human CB1 or CB2 receptors are seeded 17-24 hours prior to the experiment 50.000 cells per well in a black 96 well plate with flat clear bottom (Corning Costar #3904) in DMEM (Invitrogen No. 31331), 1×HT supplement, with 10% fetal calf serum and incubated at 5% CO2 and 37° C. in a humidified incubator. The growth medium was exchanged with Krebs Ringer Bicarbonate buffer with 1 mM IBMX and incubated at 30° C. for 30 min. Compounds were added to a final assay volume of 100 μl and incubated for 30 min at 30° C. Using the cAMP-Nano-TRF detection kit the assay (Roche Diagnostics) was stopped by the addition of 50 μl lysis reagent (Tris, NaCl, 1.5% Triton X100, 2.5% NP40, 10% NaN3) and 50 μl detection solutions (20 μM mAb Alexa700-cAMP 1:1, and 48 μM Ruthenium-2-AHA-cAMP) and shaken for 2 h at room temperature. The time-resolved energy transfer is measured by a TRF reader (Evotec Technologies GmbH), equipped with a ND:YAG laser as excitation source. The plate is measured twice with the excitation at 355 nm and at the emission with a delay of 100 ns and a gate of 100 ns, total exposure time 10 s at 730 (bandwidth 30 nm) or 645 nm (bandwidth 75 nm), respectively. The FRET signal is calculated as follows: FRET=T730-Alexa730-P(T645-B645) with P=Ru730-B730/Ru645-B645, where T730 is the test well measured at 730 nM, T645 is the test well measured at 645 nm, B730 and B645 are the buffer controls at 730 nm and 645 nm, respectively. cAMP content is determined from the function of a standard curve spanning from 10 μM to 0.13 nM cAMP.
(§2) EC50 values were determined using Activity Base analysis (ID Business Solution, Limited). The EC50 values for a wide range of cannabinoid agonists generated from this assay were in agreement with the values published in the scientific literature.

human CB1 receptors = human CB1 receptors (Homo sapiens (Human), UniProt P21554); assay: functional cAMP assay, CHO cells expressing human CB1; assay type: cell-based
Experimental: as §1, §2

[1] = functional cAMP assay, CHO cells expressing human CB1; read-out: Human CB1 EC50
[2] = read-out: Human CB1 EC50; functional cAMP assay, CHO cells expressing human CB1
[3] = Human CB1 EC50 (uM), functional cAMP assay, CHO cells expressing human CB1

human CB1 receptors, sequence (P21554 whole entry): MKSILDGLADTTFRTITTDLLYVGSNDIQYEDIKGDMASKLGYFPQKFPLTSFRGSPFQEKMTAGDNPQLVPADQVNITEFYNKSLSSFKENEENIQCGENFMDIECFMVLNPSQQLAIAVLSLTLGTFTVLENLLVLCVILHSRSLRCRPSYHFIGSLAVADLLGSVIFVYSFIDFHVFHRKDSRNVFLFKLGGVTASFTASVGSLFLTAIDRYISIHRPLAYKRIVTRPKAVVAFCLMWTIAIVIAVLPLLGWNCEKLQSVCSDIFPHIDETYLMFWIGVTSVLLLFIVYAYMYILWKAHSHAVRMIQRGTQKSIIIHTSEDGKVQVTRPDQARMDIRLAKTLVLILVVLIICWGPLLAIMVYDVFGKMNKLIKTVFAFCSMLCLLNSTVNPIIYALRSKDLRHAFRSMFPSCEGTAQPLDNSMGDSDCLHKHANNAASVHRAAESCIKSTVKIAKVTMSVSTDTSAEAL
human CB2 receptors, sequence (P34972 whole entry): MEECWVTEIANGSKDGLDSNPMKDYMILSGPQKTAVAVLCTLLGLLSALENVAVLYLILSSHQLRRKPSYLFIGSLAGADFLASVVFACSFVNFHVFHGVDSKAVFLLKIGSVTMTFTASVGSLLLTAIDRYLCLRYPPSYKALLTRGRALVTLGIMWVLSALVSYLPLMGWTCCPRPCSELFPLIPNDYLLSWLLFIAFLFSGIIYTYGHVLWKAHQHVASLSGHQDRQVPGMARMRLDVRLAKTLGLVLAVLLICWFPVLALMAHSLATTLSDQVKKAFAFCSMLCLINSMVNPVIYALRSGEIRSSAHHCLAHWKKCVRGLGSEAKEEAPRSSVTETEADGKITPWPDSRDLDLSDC

SMILES | pEC50 (human CB2 receptors) | pEC50 (human CB1 receptors; [1]) | pEC50 (human CB1 receptors; [2]) | EC50 (human CB2 receptors) [µM] | EC50 (human CB1 receptors; [3]) [µM]
CC(CC1CC1)(NC(=O)c1cc(OCC(F)(F)F)c(C2CC2)cn1)c1nnn[nH]1 (stereo not drawn) [Example 159, 5-cyclopropyl-N-[1-cyclopropyl-2-(1H-tetrazol-5-yl)propan-2-yl]-4-(2,2,2-trifluoroethoxy)pyridine-2-carboxamide] | 6.03 | < 5.00 | – | – | –
Cc1nnc(C(C)(CC2CC2)NC(=O)c2cc(OCC(F)(F)F)c(C3CC3)cn2)o1 (stereo not drawn) [Example 173, 5-cyclopropyl-N-[1-cyclopropyl-2-(5-methyl-1,3,4-oxadiazol-2-yl)propan-2-yl]-4-(2,2,2-trifluoroethoxy)pyridine-2-carboxamide] | 7.26 | < 5.00 | – | – | –
Cc1nc(C(C)(CS(C)(=O)=O)NC(=O)c2cc(OC(C)CF)c(C3CC3)cn2)no1 (single isomer, unassigned) [Example 298, 5-cyclopropyl-4-(1-fluoropropan-2-yloxy)-N-(2-(5-methyl-1,2,4-oxadiazol-3-yl)-1-(methylsulfonyl)propan-2-yl)picolinamide] | 7.24 | – | < 5.00 | – | –
CC(CF)Oc1cc(C(=O)NC2(CC(N)=O)CS(=O)(=O)C2)ncc1C1CC1 (single isomer, unassigned) [Example 292, N-[3-(2-amino-2-oxoethyl)-1,1-dioxothietan-3-yl]-5-cyclopropyl-4-[1-fluoropropan-2-yl]oxypyridine-2-carboxamide] | – | – | < 5.00 | 0.0019 | –
CC(C)(C)C(NC(=O)c1cc(OCC(F)(F)F)c(C2CC2)cn1)c1noc(N)n1 (single isomer, unassigned) [Example 226, N-[1-(5-amino-1,2,4-oxadiazol-3-yl)-2,2-dimethylpropyl]-5-cyclopropyl-4-(2,2,2-trifluoroethoxy)pyridine-2-carboxamide] | – | – | – | 0.0065 | > 10
O=C(NC1(c2nccs2)COC1)c1cc(OCC2CC2)c(C2CC2)cn1 [Example 42, 5-Cyclopropyl-4-cyclopropylmethoxy-pyridine-2-carboxylic acid (3-thiazol-2-yl-oxetan-3-yl)-amide] | 7.94 | < 5.00 | – | – | –
CNC(=O)C(C)(NC(=O)c1cc(OCC(F)(F)F)c(C2CC2)cn1)c1noc(C)n1 (single isomer, unassigned) [Example 188, 5-cyclopropyl-N-[1-(methylamino)-2-(5-methyl-1,2,4-oxadiazol-3-yl)-1-oxopropan-2-yl]-4-(2,2,2-trifluoroethoxy)pyridine-2-carboxamide] | – | – | < 5.00 | 0.0206 | –
Cc1nc(C(C)(NC(=O)c2cc(OCC(F)(F)F)c(C3(F)CCC3)cn2)C2CC2)no1 (single isomer, unassigned) [Example 306, N-(1-cyclopropyl-1-(5-methyl-1,2,4-oxadiazol-3-yl)ethyl)-5-(1-fluorocyclobutyl)-4-(2,2,2-trifluoroethoxy)picolinamide] | – | – | – | 0.0118 | > 10
Cc1nc(C(C)(NC(=O)c2cc(O[C@H](C)C(F)(F)F)c(C3CC3)cn2)C2CC2)no1 (single isomer, unassigned; epimer a) [Example 72] | 8.57 | 6.72 | – | – | –
O=C(c1cc(OCC(F)(F)F)c(C2CC2)cn1)N1CC(F)(F)C1 [Example 76, [5-Cyclopropyl-4-(2,2,2-trifluoro-ethoxy)-pyridin-2-yl]-(3,3-difluoro-azetidin-1-yl)-methanone] | 6.78 | < 5.00 | – | – | –
CC(C)(O)CNC(=O)c1cc(OCC(F)(F)F)c(C2CC2)cn1 [Example 60, 5-Cyclopropyl-4-(2,2,2-trifluoro-ethoxy)-pyridine-2-carboxylic acid (2-hydroxy-2-methyl-propyl)-amide] | 6.32 | < 5.00 | – | – | –
CNC(=O)CC(C)(NC(=O)c1cc(OCC(F)(F)F)c(C2CC2)cn1)C1CC1 (single isomer, unassigned) [Example 241, 5-cyclopropyl-N-[2-cyclopropyl-4-(methylamino)-4-oxobutan-2-yl]-4-(2,2,2-trifluoroethoxy)pyridine-2-carboxamide] | – | – | – | 0.0119 | > 10
